Test results as given in patent US20200190507A1, “Encoded Solid Phase Compound Library with Polynucleotide Based Barcoding” (The Scripps Research Institute, priority 2016, published 2020).
“Also recorded” adds a separate entry of the source.

System: ATB serum IgGs
Test: Antigen competition binding analysis with beads displaying 2-B
Parameters: species or system human
Conditions: pooled ATB serum, beads displaying 2-B; CFP 250 μg/mL

Substance | competition with 2-B for binding ATB serum IgGs
Ag85A: Mycobacterium tuberculosis purified native protein Ag85A (Rv3804c), Strain H37Rv | competed; also recorded: compete strongly
recombinant Ag85A: Mycobacterium tuberculosis recombinant protein reference standard Ag85A, NR-49427 | unreactive; also recorded: did not compete
